# From BigSolDB 2.1
smiles,measurement,setting,value
Nc1ccccc1N,solubility (mole fraction),"in acetonitrile, 283.15 K",0.0558
same,solubility (mole fraction),"in acetonitrile, 285.65 K",0.0595
same,solubility (mole fraction),"in acetonitrile, 288.15 K",0.0643
same,solubility (mole fraction),"in acetonitrile, 290.65 K",0.0685
same,solubility (mole fraction),"in acetonitrile, 293.15 K",0.0752
same,solubility (mole fraction),"in acetonitrile, 295.65 K",0.0795
same,solubility (mole fraction),"in acetonitrile, 298.15 K",0.0858
same,solubility (mole fraction),"in acetonitrile, 300.65 K",0.0916
same,solubility (mole fraction),"in acetonitrile, 303.15 K",0.0987
same,solubility (mole fraction),"in acetonitrile, 305.65 K",0.104
same,solubility (mole fraction),"in acetonitrile, 308.15 K",0.113
same,solubility (mole fraction),"in acetonitrile, 310.65 K",0.12
same,solubility (mole fraction),"in acetonitrile, 313.15 K",0.128
same,solubility (mole fraction),"in acetonitrile, 315.65 K",0.135
same,solubility (mole fraction),"in acetonitrile, 318.15 K",0.143
same,solubility (mole fraction),"in ethanol, 283.15 K",0.0139
same,solubility (mole fraction),"in ethanol, 285.65 K",0.0144
same,solubility (mole fraction),"in ethanol, 288.15 K",0.0148
same,solubility (mole fraction),"in ethanol, 290.65 K",0.0154
same,solubility (mole fraction),"in ethanol, 293.15 K",0.016
same,solubility (mole fraction),"in ethanol, 295.65 K",0.0165
same,solubility (mole fraction),"in ethanol, 298.15 K",0.0172
same,solubility (mole fraction),"in ethanol, 300.65 K",0.0177
same,solubility (mole fraction),"in ethanol, 303.15 K",0.0184
same,solubility (mole fraction),"in ethanol, 305.65 K",0.019
same,solubility (mole fraction),"in ethanol, 308.15 K",0.0199
same,solubility (mole fraction),"in ethanol, 310.65 K",0.0205
same,solubility (mole fraction),"in ethanol, 313.15 K",0.0213
same,solubility (mole fraction),"in ethanol, 315.65 K",0.0221
same,solubility (mole fraction),"in ethanol, 318.15 K",0.0233
same,solubility (mole fraction),"in methanol, 283.15 K",0.0516
same,solubility (mole fraction),"in methanol, 285.65 K",0.0533
same,solubility (mole fraction),"in methanol, 288.15 K",0.0554
same,solubility (mole fraction),"in methanol, 290.65 K",0.0572
same,solubility (mole fraction),"in methanol, 293.15 K",0.0596
same,solubility (mole fraction),"in methanol, 295.65 K",0.0613
same,solubility (mole fraction),"in methanol, 298.15 K",0.0637
same,solubility (mole fraction),"in methanol, 300.65 K",0.0658
same,solubility (mole fraction),"in methanol, 303.15 K",0.0685
same,solubility (mole fraction),"in methanol, 305.65 K",0.0708
same,solubility (mole fraction),"in methanol, 308.15 K",0.0732
same,solubility (mole fraction),"in methanol, 310.65 K",0.0758
same,solubility (mole fraction),"in methanol, 313.15 K",0.0795
same,solubility (mole fraction),"in methanol, 315.65 K",0.0828
same,solubility (mole fraction),"in methanol, 318.15 K",0.0868
same,solubility (mole fraction),"in water, 283.15 K",0.00447
same,solubility (mole fraction),"in water, 285.65 K",0.00467
same,solubility (mole fraction),"in water, 288.15 K",0.00495
same,solubility (mole fraction),"in water, 290.65 K",0.00517
same,solubility (mole fraction),"in water, 293.15 K",0.00545
same,solubility (mole fraction),"in water, 295.65 K",0.00573
same,solubility (mole fraction),"in water, 298.15 K",0.00608
same,solubility (mole fraction),"in water, 300.65 K",0.0064
same,solubility (mole fraction),"in water, 303.15 K",0.00678
same,solubility (mole fraction),"in water, 305.65 K",0.00717
same,solubility (mole fraction),"in water, 308.15 K",0.00762
same,solubility (mole fraction),"in water, 310.65 K",0.00803
same,solubility (mole fraction),"in water, 313.15 K",0.00855
same,solubility (mole fraction),"in water, 315.65 K",0.00923
same,solubility (mole fraction),"in water, 318.15 K",0.0102
